The numbers were not newly measured in PMC10049495, “Antitumor Activity of PEGylated and TEGylated Phenothiazine Derivatives: Structure–Activity Relationship” (International Journal of Molecular Sciences, 2023), which cites them from elsewhere.

A word on the IC50: it is the concentration needed to halve the response being measured.

Molecules are shown by their SMILES.

One data set concerns U87-MG. To be noted: cell line not clear from layout (U87-MG assumed); cited from earlier work.
Another data set has as its system Colo205. To be noted: cited from earlier work.

`OCCN1CCN(CCCN2c3ccccc3Sc3ccc(Cl)cc32)CC1` [Perphenazine]: the IC50 with U87-MG was 6.8 µM.

For `CN(C)CCCN1c2ccccc2Sc2ccc(Cl)cc21` [Chlorpromazine], the IC50 in the data set on Colo205 was 10 µM.
